Clc1ccccc1C(c1ccccc1)(c1ccccc1)n1ccnc1
solubility (mole fraction) (in 1,4-dioxane, 288.15 K): 0.0385
solubility (mole fraction) (in 1,4-dioxane, 293.15 K): 0.0441
solubility (mole fraction) (in 1,4-dioxane, 298.15 K): 0.05
solubility (mole fraction) (in 1,4-dioxane, 303.15 K): 0.0568
solubility (mole fraction) (in 1,4-dioxane, 308.15 K): 0.0643
solubility (mole fraction) (in 1,4-dioxane, 313.15 K): 0.0731
solubility (mole fraction) (in 1,4-dioxane, 318.15 K): 0.0813
solubility (mole fraction) (in 1,4-dioxane, 323.15 K): 0.091
solubility (mole fraction) (in acetonitrile, 278.15 K): 0.00173
solubility (mole fraction) (in acetonitrile, 283.15 K): 0.00212
solubility (mole fraction) (in acetonitrile, 288.15 K): 0.00264
solubility (mole fraction) (in acetonitrile, 293.15 K): 0.00316
solubility (mole fraction) (in acetonitrile, 298.15 K): 0.00378
solubility (mole fraction) (in acetonitrile, 303.15 K): 0.00453
solubility (mole fraction) (in acetonitrile, 308.15 K): 0.00539
solubility (mole fraction) (in acetonitrile, 313.15 K): 0.00636
solubility (mole fraction) (in acetonitrile, 318.15 K): 0.00741
solubility (mole fraction) (in acetonitrile, 323.15 K): 0.00886
solubility (mole fraction) (in isopropanol, 278.15 K): 0.00782
solubility (mole fraction) (in isopropanol, 283.15 K): 0.00947
solubility (mole fraction) (in isopropanol, 288.15 K): 0.0114
solubility (mole fraction) (in isopropanol, 293.15 K): 0.0137
solubility (mole fraction) (in isopropanol, 298.15 K): 0.0164
solubility (mole fraction) (in isopropanol, 303.15 K): 0.0195
solubility (mole fraction) (in isopropanol, 308.15 K): 0.0228
solubility (mole fraction) (in isopropanol, 313.15 K): 0.0266
solubility (mole fraction) (in isopropanol, 318.15 K): 0.031
solubility (mole fraction) (in isopropanol, 323.15 K): 0.036
solubility (mole fraction) (in n-propanol, 278.15 K): 0.0125
solubility (mole fraction) (in n-propanol, 283.15 K): 0.0151
solubility (mole fraction) (in n-propanol, 288.15 K): 0.0181
solubility (mole fraction) (in n-propanol, 293.15 K): 0.0215
solubility (mole fraction) (in n-propanol, 298.15 K): 0.0257
solubility (mole fraction) (in n-propanol, 303.15 K): 0.0301
solubility (mole fraction) (in n-propanol, 308.15 K): 0.0353
solubility (mole fraction) (in n-propanol, 313.15 K): 0.0413
solubility (mole fraction) (in n-propanol, 318.15 K): 0.0477
solubility (mole fraction) (in n-propanol, 323.15 K): 0.0554
solubility (mole fraction) (in water, 278.15 K): 9.28e-09
solubility (mole fraction) (in water, 283.15 K): 1.22e-08
solubility (mole fraction) (in water, 288.15 K): 1.56e-08
solubility (mole fraction) (in water, 293.15 K): 1.98e-08
solubility (mole fraction) (in water, 298.15 K): 2.47e-08
solubility (mole fraction) (in water, 303.15 K): 3.11e-08
solubility (mole fraction) (in water, 308.15 K): 3.85e-08
solubility (mole fraction) (in water, 313.15 K): 4.78e-08
solubility (mole fraction) (in water, 318.15 K): 5.9e-08
solubility (mole fraction) (in water, 323.15 K): 7.07e-08

— BigSolDB 2.1
